Results reported in ChEMBL document CHEMBL3714732, “Small molecule modulators of g protein-coupled receptor six” (2001).
Each block holds one compound with its values, some of them ahead of it. Calls of active or inactive are those of the source. The rule behind the calls is not given here.

Legend:
Rattus norvegicus [1] = test: Reduction in food intake in 24 hrs food-deprived Sprague-Dawley rat assessed as food intake level per 2 hrs at 100 umol/kg, po followed by standard chow pellets feeding and measured 8 hrs post dose (reference value: 2 to 2.5g/2 hrs); assay type: functional
Rattus norvegicus [2] = test: Reduction in body weight gain in 24 hrs food-deprived Sprague-Dawley rat assessed as body weight at 100 umol/kg, po followed by standard chow pellets feeding and measured 8 hrs post dose (reference value: 19.5g); assay type: functional
Rattus norvegicus [3] = test: Reduction in water intake in 24 hrs food-deprived Sprague-Dawley rat assessed as water intake level at 100 umol/kg, po followed by standard chow pellets feeding and measured 8 hrs post dose (reference value: 19g); assay type: functional
[4] = biological target: T1, G-protein coupled receptor 6 (Homo sapiens, UniProt P46095); test: Inverse agonist activity at rat G-protein GSalpha fused GPR6 (unknown origin) expressed in HEK293 cell membranes assessed as effect on [35S]GTPgammaS binding pre-incubated for 5 to 10 mins followed by 60 mins incubation in presence of [35S]GTPgammaS by scintillation proximity assay; assay type: functional
T1 sequence (P46095 whole entry, the tested form may be a part): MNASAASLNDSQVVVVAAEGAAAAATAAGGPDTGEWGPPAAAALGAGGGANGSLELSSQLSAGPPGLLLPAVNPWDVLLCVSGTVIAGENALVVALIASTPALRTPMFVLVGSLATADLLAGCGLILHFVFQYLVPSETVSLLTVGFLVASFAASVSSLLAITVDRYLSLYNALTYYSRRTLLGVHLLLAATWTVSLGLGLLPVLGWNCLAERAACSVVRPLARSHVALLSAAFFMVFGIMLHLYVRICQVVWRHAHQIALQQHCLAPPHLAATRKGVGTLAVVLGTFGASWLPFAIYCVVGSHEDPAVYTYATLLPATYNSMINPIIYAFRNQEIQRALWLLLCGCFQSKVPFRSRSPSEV

[5] = biological target: T1, G-protein coupled receptor 6; test: Inverse agonist activity at rat G-protein GSalpha fused GPR6 (unknown origin) expressed in HEK293 cell membranes assessed as cAMP accumulation pre-incubated for 30 mins by microbeta plate reader based assay; assay type: functional
Rattus norvegicus [6] = test: Reduction in food intake in 24 hrs food-deprived Sprague-Dawley rat assessed as food intake level at 54 mg/kg, ip followed by standard chow pellets feeding and measured 1.5 hrs post dose (reference value: 6g); assay type: functional
Rattus norvegicus [7] = test: Reduction in food intake in 24 hrs food-deprived Sprague-Dawley rat assessed as food intake level at 54 mg/kg, ip followed by standard chow pellets feeding and measured 6.5 hrs post dose (reference value: =<14g); assay type: functional
Rattus norvegicus [8] = test: Reduction in water intake in 24 hrs food-deprived Sprague-Dawley rat assessed as at 27 mg/kg, ip followed by standard chow pellets feeding and measured 6.5 hrs post dose relative to control; assay type: functional
Rattus norvegicus [9] = test: Reduction in water intake in 24 hrs food-deprived Sprague-Dawley rat at 54 mg/kg, ip followed by standard chow pellets feeding and measured 6.5 hrs post dose relative to control; assay type: functional
Rattus norvegicus [10] = test: Reduction in body weight gain in 24 hrs food-deprived Sprague-Dawley rat assessed as body weight level at 13.5 mg/kg, ip followed by standard chow pellets feeding and measured 6.5 hrs post dose (reference value: 20g); assay type: functional
Rattus norvegicus [11] = test: Reduction in body weight gain in 24 hrs food-deprived Sprague-Dawley rat assessed as body weight level at 27 mg/kg, ip followed by standard chow pellets feeding and measured 6.5 hrs post dose; assay type: functional, organism-based
Rattus norvegicus [12] = test: Reduction in body weight gain in 24 hrs food-deprived Sprague-Dawley rat assessed as body weight level at 54 mg/kg, ip followed by standard chow pellets feeding and measured 6.5 hrs post dose; assay type: functional, organism-based
Rattus norvegicus [13] = test: Reduction in food intake in non-food-deprived Sprague-Dawley rat assessed as food intake level at 13.5 mg/kg, ip dosed 30 mins before beginning of dark cycle followed by exposure to standard chow pellets and measured 4 hrs post dose (reference value: 9g); assay type: functional
Rattus norvegicus [14] = test: Reduction in food intake in non-food-deprived Sprague-Dawley rat assessed as food intake level at 54 mg/kg, ip dosed 30 mins before beginning of dark cycle followed by exposure to standard chow pellets and measured 4 hrs post dose (reference value: 9g); assay type: functional
Rattus norvegicus [15] = test: Reduction in water intake in non-food-deprived Sprague-Dawley rat at 6.75 to 54 mg/kg, ip dosed 30 mins before beginning of dark cycle followed by exposure to standard chow pellets and measured 15.5 hrs post dose; assay type: functional, organism-based
Rattus norvegicus [16] = test: Reduction in body weight gain in non-food-deprived Sprague-Dawley rat at 6.75 to 54 mg/kg, ip dosed 30 mins before beginning of dark cycle followed by exposure to standard chow pellets and measured 15.5 hrs post dose; assay type: functional, organism-based
Rattus norvegicus [17] = test: Reduction in body weight gain in non-food-deprived Sprague-Dawley rat at 13.5 mg/kg, ip qd for 22 days measured between day-31 and day-60 post dose; assay type: functional, organism-based
Rattus norvegicus [18] = test: Reduction in body weight gain in non-food-deprived Sprague-Dawley rat at 13.5 mg/kg, ip qd for 22 days measured between day-4 and day-31 post dose; assay type: functional, organism-based
Rattus norvegicus [19] = test: Reduction in body weight gain in non-food-deprived Sprague-Dawley rat at 13.5 mg/kg, ip qd for 22 days measured on day-1 and day-3 post dose; assay type: functional, organism-based
Rattus norvegicus [20] = test: Reduction in food intake in 24 hrs food-deprived Sprague-Dawley rat at 25 to 100 nmol, icv measured after 2 hrs post dose; assay type: functional
Rattus norvegicus [21] = test: Reduction in food intake in 24 hrs food-deprived Sprague-Dawley rat assessed food intake level at 25 to 100 nmol, icv measured 3 hrs post dose (reference value: 2.5g); assay type: functional
Rattus norvegicus [22] = test: Reduction in water intake in 24 hrs food-deprived Sprague-Dawley rat assessed water intake level at 25 and 50 nmol, icv (reference value: 17 g); assay type: functional
Rattus norvegicus [23] = test: Reduction in water intake in 24 hrs food-deprived Sprague-Dawley rat at 100 nmol, icv; assay type: functional
Rattus norvegicus [24] = test: Reduction in body weight gain in 24 hrs food-deprived Sprague-Dawley rat assessed body weight gain intake level at 100 nmol, icv (reference value: 12g); assay type: functional
Rattus norvegicus [25] = species on record: Rattus norvegicus; test: Effect on motor function in Sprague-Dawley rat assessed as effect on locomotor activity for 1.5 hrs tested immediately after compound dose; assay type: organism-based; conditions: in vivo
Rattus norvegicus [26] = test: Induction of sedation in ip dosed Sprague-Dawley rat assessed as relaxed behavior after 16 hrs post dose; assay type: organism-based; conditions: in vivo
Rattus norvegicus [27] = test: Induction of sedation in ip dosed Sprague-Dawley rat assessed as absence of anxiety like behavior after 16 hrs post dose; assay type: organism-based; conditions: in vivo
Rattus norvegicus [28] = test: Induction of sedation in non-food-deprived Sprague-Dawley rat subjected to pre-pulse of 12 db followed by 120 db pulse assessed as animal jump height level at 6.75 mg/kg, po dosed 4.5 hrs before test; assay type: organism-based; conditions: in vivo
Rattus norvegicus [29] = test: Induction of sedation in non-food-deprived Sprague-Dawley rat subjected to pre-pulse of 12 db followed by 120 db pulse assessed as animal jump height level at 13.5 and 54 mg/kg, po dosed 4.5 hrs before test; assay type: organism-based; conditions: in vivo
Rattus norvegicus [30] = test: Reduction in food intake in 24 hrs food-deprived Sprague-Dawley rat assessed as food intake level at 27 mg/kg, po followed by standard chow pellets feeding and measured 2.5 hrs post dose (reference value: 6g); assay type: functional
Rattus norvegicus [31] = test: Reduction in food intake in 24 hrs food-deprived Sprague-Dawley rat assessed as food intake level at 54 mg/kg, po followed by standard chow pellets feeding and measured 2.5 hrs post dose (reference value: 6g); assay type: functional
Rattus norvegicus [32] = test: Reduction in food intake in 24 hrs food-deprived Sprague-Dawley rat assessed as food intake level at 27 mg/kg, po followed by standard chow pellets feeding and measured 8 hrs post dose (reference value: 14g); assay type: functional
Rattus norvegicus [33] = test: Reduction in food intake in 24 hrs food-deprived Sprague-Dawley rat assessed as food intake level at 54 mg/kg, po followed by standard chow pellets feeding and measured 8 hrs post dose (reference value: 14g); assay type: functional
Rattus norvegicus [34] = test: Reduction in food intake in 24 hrs food-deprived Sprague-Dawley rat dosed orally followed by standard chow pellets feeding; assay type: functional, organism-based
Rattus norvegicus [35] = test: Reduction in food intake in non-food-deprived Sprague-Dawley rat at 6.5 to 54 mg/kg, po followed by standard chow pellets feeding and measured 18 hrs post dose relative to control; assay type: functional
Rattus norvegicus [36] = test: Reduction in food intake in non-food-deprived Sprague-Dawley rat assessed as food intake level at 6.5 to 54 mg/kg, po followed by standard chow pellets feeding and measured 18 hrs post dose (reference value: 15g); assay type: functional
Rattus norvegicus [37] = test: Reduction in food intake in 24 hrs food-deprived Sprague-Dawley rat assessed as food intake level at 100 umol/kg, po followed by standard chow pellets feeding and measured 8 hrs post dose (reference value: 14 to 14.5g); assay type: functional
Rattus norvegicus [38] = test: Reduction in body weight gain in 24 hrs food-deprived Sprague-Dawley rat assessed as body weight gain level at 100 umol/kg, po followed by standard chow pellets feeding and measured 6 hrs post dose (reference value: 20.3g); assay type: functional
Rattus norvegicus [39] = test: Reduction in water intake in 24 hrs food-deprived Sprague-Dawley rat assessed as water intake level at 100 umol/kg, po followed by standard chow pellets feeding and measured 6 hrs post dose (reference value: 19.25 to 22.9g); assay type: functional
Rattus norvegicus [40] = test: Reduction in body weight gain in 24 hrs food-deprived Sprague-Dawley rat assessed as body weight gain level at 100 umol/kg, po followed by standard chow pellets feeding and measured 6 hrs post dose (reference value: 19.25 to 20.3g); assay type: functional

SMILES: O=C(NC(=S)N1CCNC1=S)c1ccc2ccccc2c1
- Activity (Rattus norvegicus [1]): 2.5 g
- Activity (Rattus norvegicus [2]): 19.5 g
- Activity (Rattus norvegicus [3]): 19 g

SMILES: O=C(/N=C1\SSC2=NCCN21)c1cccs1
- IC50 [4]: 420 nM
- IC50 [5]: 100 nM
- Activity (Rattus norvegicus [6]): 3 g
- Activity (Rattus norvegicus [7]): 4 g
- fold change (FC) (Rattus norvegicus [8]): 4
- fold change (FC) (Rattus norvegicus [9]): 5
- Activity (Rattus norvegicus [10]): 11 g
- Activity (Rattus norvegicus [11]): Active
- Activity (Rattus norvegicus [12]): Active
- Activity (Rattus norvegicus [13]): 4 g
- Activity (Rattus norvegicus [14]): 2 g
- Activity (Rattus norvegicus [15]): Active
- Activity (Rattus norvegicus [16]): Active
- Activity (Rattus norvegicus [17]): Active
- Activity (Rattus norvegicus [18]): Active
- Activity (Rattus norvegicus [19]): Active
- fold change (FC) (Rattus norvegicus [20]): 6
- Activity (Rattus norvegicus [21]): <=1 g
- Activity (Rattus norvegicus [22]): 17 g
- inhibition (INH) (Rattus norvegicus [23]): >=50%
- Activity (Rattus norvegicus [24]): 5 g
- Activity (Rattus norvegicus [25]): Non-toxic
- Activity (Rattus norvegicus [26]): Toxic
- Activity (Rattus norvegicus [27]): Toxic
- Activity (Rattus norvegicus [28]): Non-toxic
- Activity (Rattus norvegicus [29]): Toxic
- Activity (Rattus norvegicus [30]): 6 g
- Activity (Rattus norvegicus [31]): 4 g
- Activity (Rattus norvegicus [32]): 8 g
- Activity (Rattus norvegicus [33]): 6 g
- Activity (Rattus norvegicus [34]): Dose-dependent effect
- fold change (FC) (Rattus norvegicus [35]): 3
- Activity (Rattus norvegicus [36]): <=5 g
- Activity (Rattus norvegicus [37]): 8.1 g
- Activity (Rattus norvegicus [2]): 6 g

SMILES: Cc1onc(-c2ccccc2)c1C(=O)/N=C1\SSC2=NCCN21
- IC50 [4]: 2460 nM

SMILES: O=C(/N=C1\SSC2=NCCN21)c1ccco1
- IC50 [4]: 250 nM
- IC50 [5]: 110 nM

SMILES: O=C(/N=C1\SSC2=NCCN21)c1ccccc1
- IC50 [4]: 440 nM
- IC50 [5]: 170 nM
- Activity (Rattus norvegicus [38]): 6.18 g

SMILES: O=C(/N=C1\SSC2=NCCN21)c1ccc(Cl)cc1
- IC50 [4]: 640 nM
- IC50 [5]: 270 nM
- Activity (Rattus norvegicus [37]): 9.88 g
- Activity (Rattus norvegicus [39]): 18.5 g
- Activity (Rattus norvegicus [40]): 11.4 g

SMILES: O=C(NC(=S)N1CCNC1=S)c1ccccc1F
- IC50 [5]: 200000 nM

SMILES: O=C(/N=C1\SSC2=NCCN21)c1ccno1
- IC50 [4]: 330 nM
- IC50 [5]: 100 nM

SMILES: O=C(NC(=S)N1CCNC1=S)c1cccc2ccccc12
- IC50 [4]: 200000 nM

Continued, in another order:

- IC50 [4]: 370 nM
- IC50 [5]: 200 nM
SMILES: O=C(/N=C1\SSC2=NCCN21)c1ccc(F)cc1
- Activity (Rattus norvegicus [37]): 7.93 g
- Activity (Rattus norvegicus [39]): 8.5 g
- Activity (Rattus norvegicus [40]): 4.03 g

- IC50 [4]: 200000 nM
- IC50 [5]: 200000 nM
SMILES: O=C(NC(=S)N1CCNC1=S)c1cnn(-c2ccc(Cl)cc2)c1C(F)(F)F

- IC50 [4]: 170 nM
- IC50 [5]: 170 nM
SMILES: O=C(/N=C1\SSC2=NCCN21)c1ccc2ccccc2c1
- Activity (Rattus norvegicus [37]): 9 g
- Activity (Rattus norvegicus [40]): 11 g
- Activity (Rattus norvegicus [1]): 1 g
- Activity (Rattus norvegicus [2]): 11 g
- Activity (Rattus norvegicus [3]): 4 g

- IC50 [4]: 830 nM
- IC50 [5]: 210 nM
SMILES: COc1ccc(C(=O)/N=C2\SSC3=NCCN32)cc1

- IC50 [4]: 200000 nM
SMILES: CC(C)(C)c1ccc(C(=O)NC(=S)N2CCNC2=S)cc1
